Experimental data from publication PMC5637929, “RadH: A Versatile Halogenase for Integration into Synthetic Pathways” (Angewandte Chemie (International Ed. in English), 2017).

Legend:
Test in all cases: Michaelis-Menten halogenation kinetics
[1] = target: T1, RadH (Floropilus chiversii, UniProt C5H881); format: biochemical; settings: kinetic assay conditions in supplement (Figures S4-S10)
T1 construct: recombinant, overproduced in E. coli, purified
Source text: (§1) Michaelis-Menten halogenation kinetics on RadH

[2] = target: T2, RadH (Floropilus chiversii, UniProt C5H881, D465E/T501S); format: biochemical; settings: kinetic assay conditions in supplement (Figures S4-S10); table prints D456E/T501S, text prints D465E/T501S throughout
T2 construct: recombinant, overproduced in E. coli, purified
Source text: as §1

[3] = tested on: O=c1cc(-c2ccccc2)oc2cc(O)ccc12; format: biochemical, Floropilus chiversii; settings: kinetic assay conditions in supplement (Figures S4-S10)
Source text: as §1

[4] = table prints D456E/T501S, text prints D465E/T501S throughout

T2 sequence (C5H881 whole entry D465E/T501S): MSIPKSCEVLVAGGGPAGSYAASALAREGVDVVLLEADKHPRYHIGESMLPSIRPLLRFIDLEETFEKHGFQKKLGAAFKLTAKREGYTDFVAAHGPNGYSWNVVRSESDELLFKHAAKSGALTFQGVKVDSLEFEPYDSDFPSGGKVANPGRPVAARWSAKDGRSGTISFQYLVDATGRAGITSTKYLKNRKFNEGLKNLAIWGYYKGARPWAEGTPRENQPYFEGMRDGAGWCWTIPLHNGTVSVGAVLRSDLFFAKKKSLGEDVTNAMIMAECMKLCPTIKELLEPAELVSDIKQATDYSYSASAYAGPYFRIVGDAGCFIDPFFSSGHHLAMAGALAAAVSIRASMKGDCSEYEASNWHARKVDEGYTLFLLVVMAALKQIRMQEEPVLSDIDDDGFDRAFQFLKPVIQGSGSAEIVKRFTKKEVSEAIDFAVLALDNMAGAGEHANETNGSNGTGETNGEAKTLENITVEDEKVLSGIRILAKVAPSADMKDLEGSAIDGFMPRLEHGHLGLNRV
T1 sequence (C5H881 whole entry): as the sequence (C5H881 whole entry D465E/T501S) above, with E465D, S501T counted along it

Km [1] [µM]	Km [2] [µM]	Compound	further results
281 ± 2	315 ± 1	O=c1c(-c2ccc(O)cc2)coc2cc(O)ccc12 [compound 14, 14]	
364 ± 18		Cc1cc(=O)oc2cc(O)ccc12 [compound 11, 11]	

More lines, now with the values behind:

Compound	Km [1] [µM]	Km [2] [µM]	further results
O=c1ccc2ccc(O)cc2o1 [compound 8, 7-hydroxycoumarin]	379 ± 5	465 ± 4	
RadH (Floropilus chiversii; D465E/T501S)			Km [3, 4]: 383 ± 4 µM; kcat [3, 4]: 0.000517 ± 3.33e-05 s⁻¹; kcat/Km [3, 4]: 1.35 ± 0.0833 M⁻¹ s⁻¹
RadH (Floropilus chiversii)			Km [3]: 347 ± 2 µM; kcat [3]: 0.000533 ± 5e-05 s⁻¹; kcat/Km [3]: 1.53 ± 0.15 M⁻¹ s⁻¹
Oc1ccc2cnccc2c1 [compound 6, 6-hydroxyisoquinoline]	277 ± 3	268 ± 10	
O=c1cc(C(F)(F)F)c2ccc(O)cc2o1 [compound 10, 10]	309 ± 19		
